In US7018623B2, “B complex vitamin compositions that protect against cellular damage caused by ultraviolet light” (priority 2001, dated 2006):

What was measured:
[1] = test system: human volunteers exposed to direct sunlight; experiment: Oral self-administration of B vitamins by human subjects, sunburning on continuous exposure to sunlight; type: in vivo; conditions: for expected sunburning effects of continuous sun exposure: one patient, a year and a half, oral, B12 300–500 mcg/day, folic acid 2–5 mg/day, or both with niacinamide 200–500 mg/day
Method: 1. Over the period of four weeks a white middle aged couple in their forties on holiday in Mexico self administered 400–600 mcg vitamin B12/day in the form of 100 mcg tablets.
2. Over the period of a year and a half a […] self-administered vitamin B12 alone at 300 mcg to 500 mcg/day in the form of 100 mcg tablets, folic acid alone in the form of folic acid alone at 2 mg–5 mg/day in the form of 1 mg tablets or a combination of both vitamins in the same dose range taken with niacinamide 200 mg–500 mg/day in the form of 100 mg tablets. […] Normal burning rates returned within 24 hrs of the cessation of oral administration of the various formulations.
3. […] The published UVB index gave an expected time of continuous exposure to sunlight in the Edmonton AB area of 45 minutes. The maximum SPF (skin protection factor) was computed to be approximately 330/45=7.3.
5. These experiments have been repeated with approximately twenty human volunteers of various skin types ranging in age from 25 to 35 years. Most were female, one was a qualified physician, and many were qualified nurses or other healthcare professionals trained in observing symptoms of skin burning. Over the past year, a variety of different combinations of the three B complex vitamins were tested by exposure of these individuals to direct sunlight in locales such as Alberta Canada, Kelowna Canada, Mexico, Montego Bay Jamaica, San Diego Calif., Phoenix Ariz., Los Angeles Calif., and Honolulu, Hi. either in the course of their work or on vacation. The subjects had various skin types and were of many different nationalities.

[2] = human, topical application; cited from earlier work

**Q.** For `Nc1nc2ncc(CNc3ccc(C(=O)N[C@@H](CCC(=O)O)C(=O)O)cc3)nc2c(=O)[nH]1` [folic acid], which “expected sunburning effects of continuous sun exposure” value [1] is on record?
**A.** some amelioration of the expected sunburning effects

**Q.** With `COc1ccc(C(=O)c2ccccc2)c(O)c1` [oxybenzone] as the compound, how does the “systemic absorption and urinary excretion after application to the skin” value [2] read?
**A.** absorbed systemically and excreted in human urine soon after application to the skin

**Q.** With vitamin B12 as the compound, how does the “rate of sunburning when exposed continuously to sunlight” value ([1]; 400–600 mcg/day oral, four weeks, couple in Mexico, versus past experience and versus not taking the supplement) read?
**A.** significant reduction in the rate of sunburning

**Q.** What about the “expected sunburning effects of continuous sun exposure” value [1] of the same compound?
**A.** some amelioration of the expected sunburning effects
